Experimental data: patent US12624017B2, “Salt form of isoquinolinone type compound as rock inhibitor and preparation method therefor” (GUANGZHOU OCUSUN OPHTHALMIC BIOTECHNOLOGY CO., LTD., priority 2020, dated 2026)

Columns and labels:
Assay type in all cases: in vivo, New Zealand white rabbits
[1] = test system: New Zealand rabbits suffered with acute intraocular hypertension; experiment: Intraocular pressure reduction test in acute intraocular hypertension model; conditions: for Intraocular pressure in left eye: 4 mg/mL group, left eye (solvent only); for Intraocular pressure in right eye: 4 mg/mL, 50 μL, right eye (modelled, dosed)
From the text: Acute intraocular hypertension was induced for rabbits by injection of a viscoelastic agent into the anterior chamber, and the effects of ocular pressure reduction of the compound of formula (I) were inspected by administration of eye drops at different concentrations.
Male New Zealand white rabbits, aged 97 to 127 days, weighted 2.5 to 3.4 kg, purchased from Pizhou Oriental Breeding Co., Ltd.
50 male New Zealand white rabbits were randomly divided into 5 groups according to body weight, 10 rabbits/group. The anterior chambers of the right eyes of animals in Groups 1 to 5 were injected with medical sodium hyaluronate gel in a single dose, 100 μL/eye, to induce ocular hypertension in the animals. In 5 to 15 min after molding, the right eye was administrated dropwise with the solvent, K-115, and the test article (compounds of formula (I) of different concentrations), and the left eye was administrated dropwise with the solvent, 50 μL/eye; and the intraocular pressures of the animals in both eyes were measured before administration, as well as at 2, 4, 6, 8, and 10 h after administration, respectively.

[2] = test system: New Zealand rabbits with normal intraocular pressure; experiment: Eye irritation response detection with hand-held slit lamp, 14 days eye drops; conditions: 4 mg/mL; 14 consecutive days; 50 μl/eye/day
Procedure: (§1) 42 male New Zealand white rabbits were randomly grouped into 7 groups according to body weights, 6 rabbits/group. Among the animals in Groups 1-7, the left eye was administrated dropwise with normal saline, and the right eye was administrated dropwise with a solvent/control/test article in an administration volume of 50 μL/eye respectively, once a day for 14 consecutive days, and the day of first administration was recorded as Day 1. The intraocular pressures of the animals were measured before administration on Day 1, as well as at 1 h, 2 h, 4 h, 6 h, 8 h and 10 h after administration on Day 1 (Table 10).
Animals were subjected to eye irritation response detection and fluorescein sodium detection (scored according to scoring criteria) in both eyes with a hand-held slit lamp before the start of test (Day −2/Day −1), before daily administration (Day 1 to Day 14), and at 1 h, 2 h, 4 h, 24 h, 48 h, and 72 h after the last administration (Day 14).
Animals were subjected to eye irritation response detection in both eyes with a handheld slit lamp on Day −2 to Day −1 before the start of test, before first administration every day (Day 1 to Day 14), and at 1 h, 2 h, 4 h, 24 h, 48 h, and 72 h after the last administration. The scoring criteria were as follows: […]

[3] = test system: New Zealand rabbits with normal intraocular pressure; experiment: Intraocular pressure reduction, normal intraocular pressure, Day 1 (Operation II); conditions: 4 mg/mL in right eye, Day 1; for Change in intraocular pressure: vs negative controls
From the text: An intraocular pressure reduction effect and potential ocular toxicity of the compound of formula (I) were inspected with rabbits with normal intraocular pressure by repeated administration of eye drops for 14 days.
Male New Zealand white rabbits, aged 97 to 127 days, weighted 2.6-3.5 kg, purchased from Pizhou Oriental Breeding Co., Ltd.
as §1

C[C@H]1CNCCCN1S(=O)(=O)c1cccc2cncc(F)c12 [K-115, reference compound]
Intraocular pressure in left eye ([1]; 2 h after administration): 6.50 mmHg
Intraocular pressure in left eye ([1]; 4 h after administration): 8.54 mmHg
Intraocular pressure in left eye ([1]; 6 h after administration): 11.40 mmHg
Intraocular pressure in left eye ([1]; 8 h after administration): 13.20 mmHg
Intraocular pressure in left eye ([1]; 10 h after administration): 13.37 mmHg
Intraocular pressure in left eye ([1]; before administration): 11.80 mmHg
Intraocular pressure in right eye ([1]; 2 h after administration): 8.20 mmHg
Intraocular pressure in right eye ([1]; 4 h after administration): 11.27 mmHg
Intraocular pressure in right eye ([1]; 6 h after administration): 15.07 mmHg
Intraocular pressure in right eye ([1]; 8 h after administration): 15.57 mmHg
Intraocular pressure in right eye ([1]; 10 h after administration): 16.47 mmHg
Intraocular pressure in right eye ([1]; before administration): 11.77 mmHg
Eye irritation (conclusion) [2]: no irritation
Average intraocular pressure in both eyes ([3]; 1 h after administration): 5.50 mmHg
Change in intraocular pressure ([3]; 1 h after administration): −3.39 mmHg
Average intraocular pressure in both eyes ([3]; 2 h after administration): 7.06 mmHg
Change in intraocular pressure ([3]; 2 h after administration): −2.50 mmHg
Average intraocular pressure in both eyes ([3]; 4 h after administration): 9.00 mmHg
Change in intraocular pressure ([3]; 4 h after administration): −0.89 mmHg
Average intraocular pressure in both eyes ([3]; 6 h after administration): 9.17 mmHg
Change in intraocular pressure ([3]; 6 h after administration): −1.61 mmHg
Average intraocular pressure in both eyes ([3]; 8 h after administration): 10.61 mmHg
Change in intraocular pressure ([3]; 8 h after administration): 0.23 mmHg
Average intraocular pressure in both eyes ([3]; 10 h after administration): 12.33 mmHg
Change in intraocular pressure ([3]; 10 h after administration): 0.17 mmHg
Average intraocular pressure in both eyes ([3]; before administration): 10.17 mmHg
Change in intraocular pressure ([3]; before administration): 0.83 mmHg
